Results taken from article PMC6733959, “Synthesis and Evaluations of Novel Apocynin Derivatives as Anti-Glioma Agents” (Frontiers in Pharmacology, 2019).

Tests used:
[1] = system: NF-κB pathway-related proteins; assay: Western blot of NF-κB pathway-related proteins, C6 cells; type: cell-based, rat; conditions: 20 and 50 μM, 48 h
Protocol: Briefly, after treatment with indicated concentrations of test compound (20, 50 μM) for 48 h, the cells were collected, and total cell lysates and nucleus fractions were extracted. Twenty micrograms of cellular protein were subjected to electrophoresis on 12% SDS-polyacrylamide gels and then transferred to polyvinylidene difluoride membranes. The membranes were first incubated with 5% BSA for 2 h at 37°C and then incubated with the first antibodies overnight at 4°C. After HRP-labeled secondary antibodies (1:1,000-dilution) incubation, protein bands were visualized with the enhanced chemiluminescence (ECL) detection solution. The intensity of bands was quantified using ImageJ 1.43 software (National Institutes of Health, Bethesda, MD, USA).

rat C6 glioma cells = assay: Anti-glioma MTT assay, C6 cells; type: cell-based; conditions: for IC50: Rattus norvegicus, C6 cells
Protocol: (§1) The anti-glioma effects of these compounds were evaluated by MTT assay in rat C6 glioma cells, human glioma U87 and U251 cells, and BMECs cells. Brieﬂy, cells were seeded at the density of 4,000 cells/well in 96-well plates overnight. For the first screening, the cells were incubated with 10, 20, 100 μM compounds for 48 h. Then cell viabilities were detected by MTT assay as described above. For the second screening, the cells were incubated with 6.25-, 12.5-, 25-, 50-, and 100μM compounds for 48 and 96 h, and then detected by MTT assay. The OD of each well was measured at 490 nm on an ELISA microplate reader. The inhibitory rates and IC50 values were calculated.

rat BMECs = assay: Cytotoxicity of apocynin derivatives on rat BMECs (MTT, 24 h); type: cell-based; conditions: 100 μM, vs control, P < 0.05
Protocol: (§2) Rat brain microvascular endothelial cells (BMECs) were separated from the cerebral cortex of 18-day-old male Sprague-Dawley rats as described previously ([Biegel et al., 1995]). Briefly, the cerebral cortical tissues were dissected from meninges after the rats were sacrificed, then the tissues were homogenated in physiological buffer solution (pH 7.4). After centrifugation, the pellets were collected, and the microvascular segments were then digested with 0.1% collagenase II at 37°C for 1 h. […] The second passage was used for co-culture of BBB cellular models.
Rat BMECs were collected and seeded into 96-well culture plates at a density of 7.5 × 10^3 cells/well overnight. The cells were treated with different concentrations of the compounds (10, 20, and 100 μM) for 24 h, respectively. Then, 20-μl MTT (5 mg/ml) in fresh medium was added to each well and incubated for another 4 h. Finally, 150μl dimethyl sulfoxide (DMSO) was added to dissolve formazan crystals, and the absorbance was detected at 490 nm in a multiwall-plate reader (BioTek ELx800).

human glioma U251 cells = assay: Anti-glioma MTT assay, U251 cells; type: cell-based
Protocol: as §1

BMECs = assay: MTT assay on normal BMECs (48 and 96 h); type: cell-based; conditions: Rattus norvegicus
Protocol: as §2, §1

C6 glioma = assay: Rat C6 glioma model; type: in vivo; conditions: C6 glioma-bearing Wistar rats, 25 mg/kg i.p. daily
Protocol: C6 glioma model was established as previously reported ([Xu etal., 2016]). The C6 glioma cells in the logarithmic growth phase were collected for implantation. Male Wistar rats (male, 160–180g) were anesthetized with 10% chloral hydrate, and then a hole (1 mm diameter) was drilled in the cranial bone. C6 cells in PBS were injected slowly (3 × 10^6 cells/rat).
Tumors in the brains of the rats were detected by Bruker 7.0 T Micro-MRI using a T2W RARE sequence (TR/TE 3000/15 ms; slice thickness, 1.0 mm; flip angle, 180°; Matrix 256×256; slice gap, 1.0 mm; FOV, 33×33 mm; time, 4.8 min) 7 days after implantation. Tumor volumes (V) were calculated by the following formula: V = (4/3 × π × LHW)/8, where L is the maximum anteroposterior diameter, H and W are the height and width. Then the rats were sacrificed, and the brain tissues were fixed with formalin, embedded in paraffin, sectioned, and subjected to hematoxylin/eosin (HE) staining and immunohistochemical staining for glial fibrillary acidic protein (GFAP) as previously described ([Xu et al., 2016]). The sections from each animal were analyzed by a pathologist. Only rats with maximum intracerebral tumor diameter of >5.0 mm were used.
After the successful implantation, the rats were randomly divided into […] and treated with different drugs by intraperitoneal injection daily: control group (PBS, n = 6), TMZ group (25 mg/kg, n = 6), D14 group (25 mg/kg, n = 6), and D31 group (25 mg/kg, n = 6). The body weights were recorded everyday after administration. Thirteen days after treatment, brain tumors in the rats were detected by Bruker 7.0 T Micro-MRI as described above. Tumor volumes were calculated and recorded as above.

ROS levels in C6 cells = assay: Intracellular ROS levels (DCF, flow cytometry), C6 cells; type: cell-based, rat; conditions: 20 and 50 μM, 48 h, P < 0.05
Protocol: Intracellular reactive oxygen species (ROS) levels were detected using Reactive Oxygen Species Assay Kit (Jiancheng Bioengineering, Nanjing, China) as per the manufacturer’s instruction. Brieﬂy, after treatment with indicated concentrations of test compound (20, 50 μM) for 48 h, the cells were incubated in 1 ml 2,7-dichloroﬂuorescin diacetate working solution (100 μM) for 30 min at 37°C in the dark, and washed with PBS. Then ﬂuorescence intensities of intracellular DCF were detected using a FACS Calibur ﬂow cytometer (Becton-Dickinson, San Jose, CA, USA). H2O2 treatment group was used as the positive control group.

## COc1cc(C(=O)CSCc2ccccc2Cl)ccc1O [Compound D31, 2-((2-Chlorobenzyl)thio)-1-(4-Hydroxy-3-Methoxyphenyl)Ethan-1-One]
[1]
  IκBα expression: obviously decreased
  nucleus p-NF-κB p65 expression: obviously increased
  p-IKKα/β expression: obviously increased
Rat C6 glioma cells; 10, 20, 100 μM, 48 h, compared with D1, P < 0.05
  Anti-proliferation effect on C6 cells (first screening): significant anti-proliferation effects
Rat C6 glioma cells; 48 h
  IC50: 35.1 µM
Rat C6 glioma cells; 96 h
  IC50: 25.4 µM
Rat BMECs
  Effect on cell viability of rat BMECs: significantly inhibit the cell viability
Human glioma U251 cells; U-251, 48 h
  IC50: 40.1 µM
Human glioma U251 cells; U-251, 96 h
  IC50: 35.1 µM
BMECs; 48 h
  IC50: > 100 µM
BMECs; 96 h
  IC50: > 100 µM
C6 glioma
  Body weight changes vs control group: no obvious body weight changes
C6 glioma; MRI 13 days after treatment
  Tumor volume vs control group: significantly decreased
ROS levels in C6 cells
  Fluorescence intensity of DCF (ROS generation) vs control: significant increases
